pKi: −log10 of the molar value.

The first experiment deals with T1, rat MCH1 receptor (Rattus norvegicus, UniProt P97639).
T1 construct: expressed in transfected cells
T1 sequence (P97639 whole entry): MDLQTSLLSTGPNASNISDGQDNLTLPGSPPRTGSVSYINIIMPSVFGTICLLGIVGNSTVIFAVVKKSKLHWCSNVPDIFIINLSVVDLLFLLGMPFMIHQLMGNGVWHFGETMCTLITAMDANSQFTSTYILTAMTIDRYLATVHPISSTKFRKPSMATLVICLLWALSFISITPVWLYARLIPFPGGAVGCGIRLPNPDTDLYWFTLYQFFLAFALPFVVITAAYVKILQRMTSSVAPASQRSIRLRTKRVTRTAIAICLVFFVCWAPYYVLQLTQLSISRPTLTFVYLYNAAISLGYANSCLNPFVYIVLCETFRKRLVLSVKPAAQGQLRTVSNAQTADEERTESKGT
In words: Binding affinity (Ki) at the rat MCH1 receptor. To be noted: Examples 38-141; read-out: Ki (nM) rMCH1. On the procedure:
For binding assays, pellets of transfected cells are suspended in ice-cold buffer (20 mM Tris.HCl, 5 mM EDTA, pH 7.4) and homogenized by sonication for 7 sec. The cell lysates are centrifuged at 200×g for 5 min at 4° C. The supernatants are then centrifuged at 40,000×g for 20 min at 4° C. The resulting pellets are washed once in the homogenization buffer and suspended in binding buffer (see methods for radioligand binding). Protein concentrations are determined by the method of Bradford (1976) using bovine serum albumin as the standard. Binding assays are usually performed immediately, however it is possible to prepare membranes in batch and store frozen in liquid nitrogen for future use.
Binding is performed at 25° C. for 1 hr. Incubations are terminated by rapid vacuum filtration over GF/C glass fiber filters, presoaked in 5% PEI using 50 mM Tris pH 7.4 containing 0.01% triton X-100 as wash buffer.
A methanolic solution of methyl (4S)-3-({[3-(4-[3-(acetylamino)phenyl]-3,6-dihydro-1(2H)pyridinyl)propyl]amino}carbonyl)-4-(3,4-difluorophenyl)-6-(methoxymethyl)-2-oxo-1,2,3,4-tetrahydro-5-pyrimidinecarboxylate was exposed to tritium gas at 1 atmosphere pressure in the presence of 5% palladium on carbon with stirring overnight to give the tritiated methyl (4S)-3-{[(3-{4-[3-(acetylamino)phenyl]-1-piperidinyl}propyl)amino]carbonyl}-4-(3,4-difluorophenyl)-6-(methoxymethyl)-2-oxo-1,2,3,4-tetrahydro-5-pyrimidinecarboxylate ((+)-isomer) After purification by reverse phase HPLC (Hypersil ODS, 4.6×100 mm, methanol:H2O:Et3N 10:90:1 to 100:0:1 in 15 min at 1.0 mL/min, with radiochemical and UV detection), this product was used as a radioligand in the MCH1 binding assays. The same procedure was carried out with H2 gas in place of ^3H2 to afford the non-radioactive version of Compound 10.
Take `COCC(=O)Nc1cccc(C2CCN(CCCC(=O)c3ccc(Cl)cc3)CC2)c1` [Example 70]: the inhibitory constant (Ki) worked out at 167 nM. Turning to `CS(=O)(=O)Nc1cccc(C2CCN(CCCC(=O)c3ccc(Cl)cc3)CC2)c1` [Example 71], the Ki was found to be 720 nM.

For the compound `COc1ccc(O[C@H](CCN2CCC(c3ccc(NC(=O)C(C)C)cc3)CC2)c2ccccc2)cc1OC` [Example 140], the Ki amounted to 121 nM.

Consider `CN(C)S(=O)(=O)Nc1cccc(C2CCN(CCCC(=O)c3ccc(Cl)cc3)CC2)c1` [Example 84], for which the Ki came to 511 nM. With `CC(=O)Nc1cccc(C2CCN(CCCC(=O)c3cccs3)CC2)c1` [Example 85], the Ki was found to be 654 nM. For `CC(C)C(=O)Nc1cccc(C2CCN(CC[C@H](Oc3cccc4ccccc34)c3ccccc3)CC2)c1` [Example 137], the Ki is 377 nM.

Regarding `O=C(Cc1ccccc1)Nc1cccc(C2CCN(CCCC(=O)c3ccccc3)CC2)c1` [Example 75], the inhibitory constant (Ki) was found to be 506 nM. Still for that read-out and setting: the result for `COc1cccc(CN2CCC(c3cccc(NC(=O)C(C)C)c3)CC2)c1` [Example 102] reads 187 nM. On the same count and under the same terms, the result for `Cc1ccc(C(=O)CCCN2CCC(c3cccc(NS(=O)(=O)C(C)C)c3)CC2)cc1C` [Example 89] reads 615 nM. In the case of `O=C(CCCN1CCC(c2cccc(NC(=O)C3CCCCC3)c2)CC1)c1ccc(Cl)cc1` [Example 67], the Ki is 197 nM. On to `CC(C)C(=O)Nc1cccc(C2CCN(CC[C@H](Oc3ccc(Oc4ccccc4)cc3)c3ccccc3)CC2)c1` [Example 139], for which the Ki came to 48.1 nM. On the same count and under the same terms, with `CC(=O)Nc1cccc(C2CCN(CCCNC(=O)N3C(=O)NC4=C(C(=O)OC4)C3c3ccc4nonc4c3)CC2)c1` (centres unmarked) [Example 55] the figure was 204 nM; with `CC(=O)Nc1cccc(C2CCN(CCCC(=O)c3ccc(Br)cc3)CC2)c1` [Example 88], 160 nM. Turning to `COc1cccc(CC(=O)Nc2cccc(C3CCN(CCCC(=O)c4ccc(Cl)cc4)CC3)c2)c1` [Example 69], the Ki worked out at 11.9 nM.

The experiment is the same for the next values; noted with them: Examples 142-153; read-out: Ki (nM) rMCH1.
`CC(C)C(=O)Nc1cccc(C2CCN(CCCc3c(-c4ccccc4)n(-c4ccccc4)c4ccccc34)CC2)c1` [Example 146]: the Ki turned out to be 3 nM.

As for `CC(C)C(=O)Nc1cccc(C2CCN(Cc3c[nH]c4cc(Cl)ccc34)CC2)c1` [Example 142], the Ki amounted to 20.6 nM. As to `CC(C)C(=O)Nc1cccc(C2CCN(CC[C@H](NC(=O)Cc3ccc(F)cc3)c3ccccc3)CC2)c1` [Example 145], the inhibition constant (Ki) turned out to be 3 nM.

On to `CCC(=O)N[C@@H](CCN1CCC(c2cccc(NC(=O)C(C)C)c2)CC1)c1ccccc1` [Example 144], for which the Ki is 16 nM.

On to `CC(C)C(=O)Nc1cccc(C2CCN(Cc3ccc(Oc4ccc(Cl)cc4)cc3)CC2)c1` [Example 150], for which the inhibitory constant (Ki) came to 5.2 nM. `Cc1ccc(-n2cc(CN3CCC(c4cccc(NC(=O)C(C)C)c4)CC3)c3ccccc32)cc1` [Example 143]: the inhibition constant (Ki) came to 14.9 nM.

The same experiment, now with this note: Table 3c; read-out: rMCH1 Ki.
Consider `COCC(=O)Nc1cccc(C2CCN(CCCC(=O)c3ccc(Cl)cc3)CC2)c1` [Example 70], for which the pKi is 6.78. As to `CS(=O)(=O)Nc1cccc(C2CCN(CCCC(=O)c3ccc(Cl)cc3)CC2)c1` [Example 71], the pKi is 6.14. Take `COc1ccc(O[C@H](CCN2CCC(c3ccc(NC(=O)C(C)C)cc3)CC2)c2ccccc2)cc1OC` [Example 140]: the negative-log Ki (pKi) was 6.92. As for `CN(C)S(=O)(=O)Nc1cccc(C2CCN(CCCC(=O)c3ccc(Cl)cc3)CC2)c1` [Example 84], the pKi is 6.29.

In the case of `CC(=O)Nc1cccc(C2CCN(CCCC(=O)c3cccs3)CC2)c1` [Example 85], the pKi is 6.18. Turning to `CC(C)C(=O)Nc1cccc(C2CCN(CC[C@H](Oc3cccc4ccccc34)c3ccccc3)CC2)c1` [Example 137], the negative-log Ki (pKi) was 6.42.

Take `O=C(Cc1ccccc1)Nc1cccc(C2CCN(CCCC(=O)c3ccccc3)CC2)c1` [Example 75]: the negative logarithm of the Ki (pKi) was 6.30. Take `COc1cccc(CN2CCC(c3cccc(NC(=O)C(C)C)c3)CC2)c1` [Example 102]: the pKi is 6.73. The same measure, in the same setting: the result for `Cc1ccc(C(=O)CCCN2CCC(c3cccc(NS(=O)(=O)C(C)C)c3)CC2)cc1C` [Example 89] reads 6.21; that for `O=C(CCCN1CCC(c2cccc(NC(=O)C3CCCCC3)c2)CC1)c1ccc(Cl)cc1` [Example 67], 6.71; that for `CC(C)C(=O)Nc1cccc(C2CCN(CC[C@H](Oc3ccc(Oc4ccccc4)cc3)c3ccccc3)CC2)c1` [Example 139], 7.32. Regarding `CC(=O)Nc1cccc(C2CCN(CCCNC(=O)N3C(=O)NC4=C(C(=O)OC4)C3c3ccc4nonc4c3)CC2)c1` (centres unmarked) [Example 55], the negative logarithm of the Ki (pKi) was 6.69. Regarding `CC(=O)Nc1cccc(C2CCN(CCCC(=O)c3ccc(Br)cc3)CC2)c1` [Example 88], the pKi was 6.80. For the compound `COc1cccc(CC(=O)Nc2cccc(C3CCN(CCCC(=O)c4ccc(Cl)cc4)CC3)c2)c1` [Example 69], the negative logarithm of the Ki (pKi) is 7.92.

In another experiment the target is T2, human Alpha-1a Adrenergic receptor (Homo sapiens, UniProt P35348).
T2 construct: expressed in transfected cells
T2 sequence (P35348 1-466): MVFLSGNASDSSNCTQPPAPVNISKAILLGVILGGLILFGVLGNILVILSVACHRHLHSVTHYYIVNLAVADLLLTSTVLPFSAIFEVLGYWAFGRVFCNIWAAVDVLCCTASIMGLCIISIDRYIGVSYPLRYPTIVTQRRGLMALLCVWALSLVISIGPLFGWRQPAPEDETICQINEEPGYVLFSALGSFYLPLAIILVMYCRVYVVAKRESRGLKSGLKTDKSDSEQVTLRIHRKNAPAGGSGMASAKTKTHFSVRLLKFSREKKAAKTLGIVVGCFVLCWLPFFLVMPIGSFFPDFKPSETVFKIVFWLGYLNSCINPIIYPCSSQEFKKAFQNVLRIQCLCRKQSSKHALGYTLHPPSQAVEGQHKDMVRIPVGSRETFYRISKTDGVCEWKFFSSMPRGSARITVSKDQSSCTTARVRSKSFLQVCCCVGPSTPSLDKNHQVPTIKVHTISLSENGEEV
Put plainly: Binding affinity at the human alpha-1A adrenergic receptor. Particulars: Table 3c; read-out: hAlpha-1a Ki. An excerpt: Other receptors: Cell membranes expressing human dopamine D1, D2, D4 and rat D3 receptors were purchased through BioSignal, Inc. (Montreal, Canada). Binding assays using the histamine H1 receptor; dopamine receptors; and α1A, α1B, and α2 adrenergic receptors may be carried out according to the procedures described in U.S. Pat. No. 5,780,485, the disclosure of which is hereby incorporated by reference in its entirety into this application. Binding assays using the dopamine D5 receptor may be carried out according to the procedures described in U.S. Pat. No. 5,882,855, the disclosure of which is hereby incorporated by reference in its entirety into this application. Binding assays for the human α1D adrenergic receptor may be carried out according to the procedures described in U.S. Pat. No. 6,156,518, the disclosure of which is hereby incorporated by reference in its entirety into this application.
Turning to `COc1cccc(CC(=O)Nc2cccc(C3CCN(CCCC(=O)c4ccc(Cl)cc4)CC3)c2)c1` [Example 69], the pKi is 7.21.

Broadly, the Ki is the dissociation constant of the complex between target and ligand, obtained from inhibition or displacement. In general, pKi refers to the Ki on a negative log10 scale, so that one unit is a factor of ten.

Values taken from US20040038855A1 (priority 1999, published 2004).
